≈ marks a conversion by molar mass, not a printed value. Like-named read-outs stand apart in the source and are kept apart here.
Columns and labels:
[1] = Compound solubility determination (gross and equilibrium solubility; FaSSIF, FeSSIF, pH 7.4 PBS, pH 1.0 0.1N HCl, pH 4.5 sodium citrate); type: physicochemical; conditions: thermodynamic from solid
Protocol: Compound Solubility Determination
An amount of 3 mg solid compound with LC-MS purity ≧95% was required. This amount was split between 3 different glass vials (1.8 ml volume each), placing 1 mg compound into each one.
Organic solvents of HPLC grade were used. Ultra pure water (Milli-Q grade) was used. Buffers were prepared with ultra pure water and filtered using 0.45μ cameo filters. The compositions of each solvent employed in this assay are described below (part III).
2. Determination of Equilibrium Solubility (Assuming Chemical Stability in the Desired Solvent is not a Problem).
For each of the three vial samples prepared as described above, in which the amount of compound was totally dissolved, the following procedure was subsequently carried out: • a) A small amount (approx. 0.1 mg) of additional solid compound was added to the vial to maintain an excess of the compound in the mixture in the form of undissolved solid. • b) The samples were magnetically stirred for 24 hr. If required, additional solid compound (0.1 mg) was added to maintain excess of it and then the samples were stirred again. • c) Then the samples were filtered (Millipore Milex filters nylon 0.2 um) and three aliquots were taken (one from each of the three vials) and analysed by LC-MS. • d) The pH of the final solution in each sample was measured with a pH-meter (WTW pH330i and a pH-electrode Sentix 41).
3. LC-MS Assay for Analytical Quantification
All filtered aliquots were analysed by LC-MS. The analysis was carried out with a Luna 5 μC18 (2) column 4.6×150 mm, using a HP1100 HPLC instrument interfaced with a Waters ZMD-2000 MS spectrometer. The concentration of the final sample as prepared above was calculated from that of a reference calibration curve obtained from serial dilutions of a 2 mM solution of the compound under investigation in DMSO (Aldrich cat. ref.: 27685-5) stock solution.
The analysis of all LC-MS data was performed with MassLynx 3.4 software. Statistical and graphic analysis of data was performed using Microsoft Excel. The concentration (uM) and solubility (ug/ml) for each compound was calculated using the peak areas from the sample and those from the calibration curve.
A) FaSSIF is a solvent which simulates the Fasted State of the Intestinal Fluid. (FaSSIF: Fasted State Simulated Intestinal Fluid).
B) FeSSIF is a solvent which simulates the Fed State of the Intestinal Fluid. (FeSSIF: Fed State Simulated Intestinal Fluid).
C) Solubility at pH 7.4 was determined in phosphate buffered saline (PBS) (Fluka cat. ref: 79383)
D) Solubility at pH 1.0 was determined in 0.1N HCl solution (Scharlau AL0744010C)
E) Solubility at pH 4.5 was determined in sodium citrate 0.5M solution. (Aldrich 25, 127-5)

Plasmodium falciparum = assay: In vitro anti-malarial activity against Plasmodium falciparum, IC50 assay / [3H]-hypoxanthine incorporation assay; type: cell-based; conditions: Erythrocyte, parasitized red blood cells, 48 hours
Protocol: In Vitro Anti-malarial Activity Against Plasmodium falciparum
IC50 Assay/[^3H]-Hypoxanthine Assay
Plasmodium falciparum strains.
The culture medium comprised RPMI 1640 with 25 mM HEPES, sodium bicarbonate and glutamine (GIBCO™ cat. ref.: 52400), supplemented with 10% of pooled human sera AB (Irvine Scientific, cat. ref.: 5009) and HT supplement (0.15 mM hypoxanthine and 24 μM thymidine), (GIBCO™ cat. ref.: 41065). Human sera were decomplemented 30 min. at 56° C., aliquoted and stored frozen at −20° C. until use in this culture medium.
Red blood cells O+ stock suspensions were prepared from whole blood bags coming from incomplete blood donation, provided by the Spanish Red Cross (<25 days after sampling). This “whole blood” was aliquoted and stored at 4° C.
To prepare red blood cells for the assay, the whole blood was centrifuged and washed 3 times with RPMI without serum. The upper phase, containing white blood cells was removed. The washed red blood cells were kept as a 50% suspension in complete medium. The prepared cells were stored at 4° C. and were employed in the assay at any time up to 4 days after preparation.
Test compounds were dissolved at 2 mg/ml in 100% DMSO on the day of the assay. If necessary, complete dissolution was achieved by gentle heating (the mixture was heated at a temperature <37° C.) and sonication (sonication bath).
For IC50 determinations, 10 serial 2-fold dilutions were prepared in complete medium in the presence of a constant amount of DMSO.
Plasmodium falciparum strains were maintained in complete medium at an hematocrit of 5% in continuous culture using a method adapted from Trager and Jensen (1, 2).
The parasitemia was calculated by counting the percentage of parasitized erythrocytes by optical microscopy. Thin films of blood were made every day from each culture flask, fixed with methanol and stained for 10 min. in Giemsa (Merck, cat ref.: 1.09204) at 10% in buffered water pH 7.2. The glass slides were observed and counted with an optical microscope (Nikon, Eclipse E200) equipped with a 100× immersion oil objective.
The culture was maintained at an hematocrit of 5%, with a daily change of medium and was diluted when parasitemia had reached about 5%.
[^3H] Hypoxanthine incorporation assay was conducted using a method adapted from Desjardins et al. (3). The assays were performed in 96 wells flat bottom microplates.
1. Serial dilutions of the test compounds (50 μl of a 5× solution/well) were deposited in duplicate. Compounds of the invention were tested in this assay. Chloroquine and Atovaquone were used as control compounds for each assay.
3. [^3H]-Hypoxanthine (Amersham Biosciences, cat. ref.: TRK74) was added extemporaneously to the inoculum suspension at a concentration of 1 μCi/ml (equating to […]). 200 μl of the resulting suspension was distributed into each well (other than the control well H12 described below) leading to a final volume of 250 μl per well, at 2% of hematocrit and 0.5% of parasitemia/well.
4. In each plate, 2 columns were reserved for control wells: • Column 11: Positive control wells: PRBCs with 0.2% DMSO—(i) to determine DMSO solvent effect on parasite growth (at a final concentration of 0.2%) and (ii) to compare with cultures treated with test compounds. • Column 12 (comprising wells A12-H12): • A12-D12—Background value wells: Uninfected RBCs—blank control to obtain the background reading from RBCs without parasites. • E12-G12—Solvent effect wells: PRBCs without DMSO—to determine DMSO solvent effect on PRBCs by comparing these wells with column 11 wells. • H12-Non-radioactive well: PRBCs with cold hypoxanthine—(i) to carry out a thin blood film to determine parasitemia value after incubation by microscopy and (ii) to ensure that the parasites have grown properly during the assay. (200 μl of inoculum suspension was prepared as described above (Items 2 and 3) but with non-tritiated hypoxanthine instead of [3H]-hypoxanthine, then added to this well to a final volume of 250 μl). […]

[2] = 0.1N HCl solution, simulated gastric fluid, pH 1 (HCl), read-out: Solubility at pH 1 (HCl)
[3] = FaSSIF (fasted state simulated intestinal fluid), fassif, read-out: Solubility in FaSSIF
[4] = FeSSIF (fed state simulated intestinal fluid), fessif, read-out: Solubility in FeSSIF
[5] = phosphate buffered saline (PBS), aqueous buffer, pH 7.4 (PBS), read-out: Solubility at pH 7.4 (PBS)
[6] = sodium citrate 0.5M solution, aqueous buffer, pH 4.5 (Na citrate), read-out: Solubility at pH 4.5 (Na citrate)

SMILES | solubility at 24 h [1, 2] [µg/mL] | solubility at 24 h [1, 3] [µg/mL] | solubility at 24 h [1, 4] [µg/mL] | solubility at 24 h [1, 5] [µg/mL] | solubility at 24 h [1, 6] [µg/mL] | IC50 (Plasmodium falciparum) [µg/mL]
CCCCCCCc1ccc(-c2c(C)[nH]c(C)c(Cl)c2=O)cn1.Cl [Example 48, 5-Chloro-6′-(n-heptyl)-2,6-dimethyl-3,3′-bipyridin-4(1H)-one] | ≥ 50 | 10 to 50 |  | 1 to 5 | ≥ 50 | < 0.125
Cc1[nH]c(C)c(-c2ccc(-c3ccc(Cl)cc3)nc2)c(=O)c1Br [Example 19, 5-Bromo-6′-(4-chlorophenyl)-2,6-dimethyl-3,3′-bipyridin-4(1H)-one] | 10 to 50 (≈ 25.7 to 128 µM) | 1 to 5 (≈ 2.57 to 12.8 µM) | 5 to 10 (≈ 12.8 to 25.7 µM) | 1 to 5 (≈ 2.57 to 12.8 µM) | 1 to 5 (≈ 2.57 to 12.8 µM) | < 0.125
Cc1[nH]c(C)c(-c2ccc(-c3cccc(Cl)c3)nc2)c(=O)c1Br [Example 20, 5-Bromo-6′-(3-chlorophenyl)-2,6-dimethyl-3,3′-bipyridin-4(1H)-one] | ≥ 50 | < 1 |  | < 1 | < 1 | < 0.125
Cc1[nH]c(C)c(-c2ccc(Oc3ccc(OC(F)(F)F)cc3)nc2)c(=O)c1Cl [Example 49, 5-Chloro-2,6-dimethyl-6′-({4-[(trifluoromethyl)oxy]phenyl}oxy)-3,3′-bipyridin-4(1H)-one] | 5 to 10 (≈ 12.2 to 24.3 µM) | < 1 | < 1 | < 1 | < 1 | < 0.125
Cc1[nH]c(C)c(-c2ccc(-c3ccccc3Cl)nc2)c(=O)c1Br [Example 21, 5-Bromo-6′-(2-chlorophenyl)-2,6-dimethyl-3,3′-bipyridin-4(1H)-one] | ≥ 50 | 5 to 10 (≈ 12.8 to 25.7 µM) |  | 1 to 5 (≈ 2.57 to 12.8 µM) | 5 to 10 (≈ 12.8 to 25.7 µM) | < 0.125

Results, then the compound that gave them:

solubility at 24 h [1, 2] [µg/mL] | solubility at 24 h [1, 3] [µg/mL] | solubility at 24 h [1, 4] [µg/mL] | solubility at 24 h [1, 5] [µg/mL] | solubility at 24 h [1, 6] [µg/mL] | IC50 (Plasmodium falciparum) [µg/mL] | SMILES
10 to 50 (≈ 25.2 to 126 µM) | < 1 | 1 to 5 (≈ 2.52 to 12.6 µM) | < 1 | < 1 | < 0.125 | Cc1[nH]c(C)c(-c2ccc(-c3ccc(C(F)(F)F)cc3F)nc2)c(=O)c1Cl [Example 58, 5-chloro-6′-[2-fluoro-4-(trifluoromethyl)phenyl]-2,6-dimethyl-3,3′-bipyridin-4(1H)-one]
5 to 10 (≈ 10.2 to 20.4 µM) | < 1 |  | < 1 | < 1 | < 0.125 | Cc1[nH]c(C)c(-c2ccc(-c3ccc(C(F)(F)F)cc3C(F)(F)F)nc2)c(=O)c1Br [Example 24, 5-Bromo-2,6-dimethyl-6′-{2,4-bis[trifluoromethyl]phenyl}-3,3′-bipyridin-4(1H)-one]
1 to 5 (≈ 2.04 to 10.2 µM) | < 1 |  | < 1 | < 1 | < 0.125 | Cc1[nH]c(C)c(-c2ccc(-c3cc(C(F)(F)F)cc(C(F)(F)F)c3)nc2)c(=O)c1Br [Example 25, 5-Bromo-2,6-dimethyl-6′-{3,5-bis[trifluoromethyl]phenyl}-3,3′-bipyridin-4(1H)-one]
≥ 50 | 1 to 5 (≈ 2.36 to 11.8 µM) |  | < 1 | < 1 | < 0.125 | Cc1[nH]c(C)c(-c2ccc(-c3cccc(C(F)(F)F)c3)nc2)c(=O)c1Br [Example 17, 5-Bromo-2,6-dimethyl-6′-{3-[trifluoromethyl]phenyl}-3,3′-bipyridin-4(1H)-one]
≥ 50 | 1 to 5 (≈ 2.68 to 13.4 µM) |  | 1 to 5 (≈ 2.68 to 13.4 µM) | 5 to 10 (≈ 13.4 to 26.8 µM) | < 0.125 | Cc1[nH]c(C)c(-c2ccc(-c3ccccc3F)nc2)c(=O)c1Br [Example 23, 5-Bromo-6′-(2-fluorophenyl)-2,6-dimethyl-3,3′-bipyridin-4(1H)-one]
≥ 50 | 10 to 50 (≈ 24.6 to 123 µM) |  | 1 to 5 (≈ 2.46 to 12.3 µM) | 10 to 50 (≈ 24.6 to 123 µM) | < 0.125 | Cc1[nH]c(C)c(-c2ccc(CCc3cccc(C(F)(F)F)c3)nc2)c(=O)c1Cl [Example 44, 5-Chloro-2,6-dimethyl-6′-{2-[3-(trifluoromethyl)phenyl]ethyl}-3,3′-bipyridin-4(1H)-one]
≥ 50 | 5 to 10 (≈ 12.1 to 24.2 µM) | 10 to 50 (≈ 24.2 to 121 µM) | < 1 | < 1 | < 0.125 | Cc1[nH]c(C)c(-c2ccc(-c3cc(C(F)(F)F)ccc3Cl)nc2)c(=O)c1Cl [Example 57, 5-chloro-6′-[2-chloro-5-(trifluoromethyl)phenyl]-2,6-dimethyl-3,3′-bipyridin-4(1H)-one]
1 to 5 (≈ 2.53 to 12.6 µM) | 1 to 5 (≈ 2.53 to 12.6 µM) | 5 to 10 (≈ 12.6 to 25.3 µM) | < 1 | < 1 | < 0.125 | Cc1[nH]c(C)c(-c2cnc(-c3ccc(OC(F)(F)F)cc3)nc2)c(=O)c1Cl [Example 51, 3-Chloro-2,6-dimethyl-5-{2-[4-(trifluoromethyloxy)phenyl]-5-pyrimidinyl}-4(1H)-pyridinone]
